In patent US9718851B2, “Deuterated nucleoside/tide derivatives” (Enanta Pharmaceuticals, Inc., priority 2014, dated 2017):
pEC50: −log10 of the molar value.

System: HCV replicon RNA, genotype 1a (Huh-1a7 replicon cell line)
Test: HCV Replicon Assay - qRT-PCR, genotype 1a replicon
Assay type: cell-based, HCV (strain H77
Conditions: Hepatitis C virus; HCV genotype 1a replicon, HCV RNA by qRT-PCR normalized to GAPDH RNA
Source text: HCV replicon cell lines (kindly provided by R. Bartenschlager) isolated from colonies as described by Lohman et al. (Lohman et al. (1999) Science 285: 110-113, expressly incorporated by reference in its entirety) and used for all experiments. One of the HCV replicon cell lines (strain Conl, genotype 1b) has the nucleic acid sequence set forth in EMBL Accession No.: AJ242651, the coding sequence of which is from nucleotides 1801 to 8406. Another replicon cell line (strain H77, genotype 1a) was constructed as described by Yi et al. (Yi et al. (2004) Journal of Virology 78(15):7904-15). The coding sequences of the published HCV replicons were synthesized and subsequently assembled in plasmids using standard molecular biology techniques.
One replicon cell line (“SGR 11-7”) stably expresses HCV replicon RNA, genotype 1b, which consists of (i) the HCV 5′UTR fused to the first 12 amino acids of the capsid protein, (ii) the neomycin phosphotransferase gene (neo), (iii) the IRES from encephalomyocarditis virus (EMCV), and (iv) HCV NS2 to NS5B genes and the HCV 3′UTR. Another replicon cell line (“Huh-1a7”) described by Yi et al. (Yi et al. (2004) Journal of Virology 78(15):7904-15, expressly incorporated by reference in its entirety) stably expresses HCV replicon RNA, genotype 1a, which consists of (i) the HCV 5′UTR fused to the first 12 amino acids of the capsid protein, (ii) the HIV tat protein, (iii) the neomycin phosphotransferase gene (neo), (iv) the IRES from encephalomyocarditis virus (EMCV), and (v) HCV NS3 to NS5B genes that harbor cell culture adaptive mutations (Q1067R, K1691R, S2204I) and the HCV 3′UTR. […]
EC50 values of single agent compounds were determined by HCV RNA detection using quantitative RT-PCR, according to the manufacturer's instructions, with a TAQMAN® One-Step RT-PCR Master Mix Reagents Kit (Cat# AB 4309169, Applied Biosystems) on an ABI Model 7500 thermocycler. EC50 values of combinations are similarly determined by HCV RNA detection using quantitative RT-PCR. The TAQMAN primers to use for detecting and quantifying HCV RNA obtained from Integrated DNA Technologies. HCV RNA is normalized to GAPDH RNA levels in drug-treated cells, which is detected and quantified using the Human GAPDH Endogenous Control Mix (Applied Biosystems, AB 4310884E). […] Chemical agent cytotoxicity is evaluated using an MTS assay according to the manufacturer's directions (Promega). […]

[2H][C@@]1(O)[C@@H](CO[P@@](=O)(N[C@@H](C)C(=O)OC(C)C)Oc2ccccc2)O[C@@H](n2ccc(=O)[nH]c2=O)[C@]1(C)F [Example 1]
pEC50: 6.00 to 7.00

[2H][C@]1(CO[P@@](=O)(N[C@@H](C)C(=O)OC(C)C)Oc2ccccc2)O[C@@H](n2ccc(=O)[nH]c2=O)[C@](C)(F)[C@@H]1O [Example 2]
pEC50: 6.00 to 7.00

[2H]C([2H])(O[P@@](=O)(N[C@@H](C)C(=O)OC(C)C)Oc1ccccc1)[C@H]1O[C@@H](n2ccc(=O)[nH]c2=O)[C@](C)(F)[C@@H]1O [Example 3]
pEC50: 6.00 to 7.00

[2H]C([2H])(O[P@@](=O)(N[C@@H](C)C(=O)OC(C)C)Oc1ccccc1)[C@@]1([2H])O[C@@H](n2ccc(=O)[nH]c2=O)[C@](C)(F)[C@@H]1O [Example 4]
pEC50: 6.00 to 7.00
